This is an account of results in patent US20250032488A1, “METHODS OF TREATMENT USING LOU064” (NOVARTIS AG, priority 2021, published 2025).

Data set [1] is described as follows: Concentrations of LOU064 in blood, PCA study. In kind it is in vivo, mice. Particulars: BALB/c, mouse, whole blood, oral, 2.5 hours after second dose, low-dose IgE sensitization, Mean ± SD (n = 5). The procedure:
LOU064 was tested in a murine PCA model. The model used BALB/c mice aged 8-10 weeks of age. For passive sensitization with hapten-specific IgE, mice under isoflurane anesthesia were given an intradermal injection of 20 μl anti-DNP IgE in saline into the right ear and 20 μl of saline into the left ear. For FccR-specific PCA, mice were given a low dose of 3 ng anti-DNP IgE. For maximal PCA mice were given a high dose of 25 ng anti-DNP IgE. LOU064 was administered p.o. in a volume of 5 ml/kg body weight. A first dose was administered 4 hours after sensitization on the evening before challenge. The next morning, 2 hours prior to hapten challenge, mice were given a second oral dose of LOU064.
Mice were challenged with hapten 2 hours after the second dose by placing them into a heated chamber. Animals were then injected i.v. with 100 μg of the hapten DNP-HSA (dinitrophenyl-human serum albumin) in 200 μl of 2% Evans blue diluted in PBS. The mice were then returned to their cage for exactly 30 minutes. Thirty minutes later, animals were then anesthetized with isoflurane and bled retro-orbitally using EDTA coated blood collection tubes for analysis of compound exposure. The mice were then sacrificed by cervical dislocation. A 6 mm punch biopsy was taken from both the left and the right ear and placed into 100 μl of formalin. The skin biopsies were incubated at 80° C. overnight to extract the dye. Twenty-four hours later 80 μl of formalin solution were transferred to a clear flat bottom 96 well plate and the optical absorption was read at 620 nm. Analysis was performed by subtracting the left ear (saline) from the right ear (IgE) to determine how much dye was released into the skin tissue of the biopsy. Statistical significance was determined by ANOVA. Spleens were removed for BTK occupancy analysis.
Analysis of blood level: Blood samples were taken as denoted and compound measurement was performed. Blood samples were spiked with a structurally similar internal standard mixed with acetonitrile (4 volumes) and centrifuged at ˜ 4000 rpm (4° C.). Supernatant was then transferred into a microtiter plate. An aliquot of each sample was injected into an LC-MS/MS system for determination of concentrations of the parent molecule.
The concentrations of LOU064 present in mouse blood, 2.5 hours after the second compound dose are shown for the low-dose IgE sensitization in Table 1.

The target of data set [2] is T1, BTK (Mus musculus, UniProt P35991).
T1 construct: each spleen was crushed and lysed in a GentleMACS; from tissue; host or cells: mouse spleen (BALB/c, C57Bl6) and lung (C57Bl6)
T1 sequence (P35991 whole entry): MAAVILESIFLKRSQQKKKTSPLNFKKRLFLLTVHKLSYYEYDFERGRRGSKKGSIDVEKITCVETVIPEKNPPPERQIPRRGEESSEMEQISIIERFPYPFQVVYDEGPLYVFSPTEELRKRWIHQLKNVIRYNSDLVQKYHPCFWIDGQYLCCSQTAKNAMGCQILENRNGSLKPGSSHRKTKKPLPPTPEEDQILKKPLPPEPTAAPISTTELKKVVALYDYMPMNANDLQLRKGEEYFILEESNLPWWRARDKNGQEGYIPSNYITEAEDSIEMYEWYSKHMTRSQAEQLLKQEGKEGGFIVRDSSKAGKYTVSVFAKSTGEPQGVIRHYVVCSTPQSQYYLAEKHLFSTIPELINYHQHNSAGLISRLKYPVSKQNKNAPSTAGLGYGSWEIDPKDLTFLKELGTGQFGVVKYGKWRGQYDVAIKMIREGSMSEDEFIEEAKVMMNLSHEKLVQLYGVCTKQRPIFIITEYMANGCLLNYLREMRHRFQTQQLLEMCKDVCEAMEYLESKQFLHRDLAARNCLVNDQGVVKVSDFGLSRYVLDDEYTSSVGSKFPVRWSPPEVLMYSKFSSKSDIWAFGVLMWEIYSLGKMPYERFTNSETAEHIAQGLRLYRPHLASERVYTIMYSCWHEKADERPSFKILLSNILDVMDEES
In words: BTK occupancy in spleen, PCA study. In kind it is in vivo, mice. Particulars: 2.5 hours after second oral dose, read-out: BTK occupancy in spleen relative to vehicle controls. As to the method: The levels of BTK occupancy after dosing of LOU064 was determined in separate ELISAs for total BTK protein and for bound BTK (=free BTK).
Covalent binding of compounds to BTK was determined with immunoassays for free BTK (i.e., not covalently occupied by compound) and total BTK protein. For free BTK measurements, samples were incubated with a biotinylated covalent BTK probe (Pulz R et al, ACS Med. Chem. Lett. 2019, 10, 1467-1472) then samples were added to streptavidin ELISA plates to allow binding of probe-bound BTK. The binding of the probe to BTK is mutually exclusive with compound binding to BTK. Plate-bound BTK was detected with an anti-BTK antibody (D3H5, Cell Signaling Technology). For total BTK measurements, an ELISA plate was coated with D3H5 anti-BTK to capture total BTK. An anti-BTK antibody (no. 53, BD Biosciences) directed to a different epitope was then used to detect captured BTK. The respective free BTK levels for each sample were normalized to the total BTK level in the same sample, and these ratios were expressed as percentage of the vehicle control samples. […]
The relative BTK occupancy was calculated as the ratio of free BTK (signal of bound BTK) to total BTK for each sample: Ri=free BTK/total BTK. The individual Ri values were then normalized to the vehicle group and expressed as percent occupancy: (average of Ri vehicle group-Ri)/(average of Ri vehicle group)*100%

The target in data set [3] is T2, BTK (Homo sapiens, UniProt Q06187).
T2 construct: simulate BTK occupancy in human spleen/tissues across a range of doses; from tissue; host or cells: human spleen/tissues (simulated, not sampled)
T2 sequence (Q06187 whole entry): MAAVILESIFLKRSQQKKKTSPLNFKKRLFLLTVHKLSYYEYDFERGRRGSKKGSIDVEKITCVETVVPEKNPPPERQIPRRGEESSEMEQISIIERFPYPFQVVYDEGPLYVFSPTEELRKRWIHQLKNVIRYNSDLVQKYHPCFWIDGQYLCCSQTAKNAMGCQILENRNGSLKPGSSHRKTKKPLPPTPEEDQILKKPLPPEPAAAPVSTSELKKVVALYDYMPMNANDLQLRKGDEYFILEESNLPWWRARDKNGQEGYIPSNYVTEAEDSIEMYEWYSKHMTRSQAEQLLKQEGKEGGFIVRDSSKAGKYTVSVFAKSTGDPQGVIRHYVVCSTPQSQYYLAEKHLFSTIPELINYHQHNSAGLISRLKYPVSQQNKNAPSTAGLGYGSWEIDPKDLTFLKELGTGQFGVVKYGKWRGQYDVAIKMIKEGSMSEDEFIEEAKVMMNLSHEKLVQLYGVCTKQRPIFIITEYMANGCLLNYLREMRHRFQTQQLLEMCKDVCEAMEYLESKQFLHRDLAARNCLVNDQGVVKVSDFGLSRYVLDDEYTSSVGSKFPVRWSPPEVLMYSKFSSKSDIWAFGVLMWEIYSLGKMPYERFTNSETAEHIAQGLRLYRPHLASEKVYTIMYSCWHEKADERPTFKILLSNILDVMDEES
In words: Translational PK/PD model: simulated BTK occupancy in human spleen/tissues. Particulars: from prediction model of spleen BTK occupancy and HED. From the text: The purpose of this analysis was to characterize the pharmacokinetics (PK) of LOU064 in healthy volunteers and to use a previously developed, translational target occupancy model to simulate BTK occupancy in human spleen/tissues across a range of doses and dosing regimen (B.I.D vs QD).
Pharmacokinetic data from a Phase I clinical study reported by Kaul et al. (2021) were used in the current analysis, including 102 patients.
A translational target occupancy model to simulate BTK occupancy in spleen/tissues was developed using a two-step approach.
In a first step, a population PK model was established to describe LOU064 PK data from Phase I clinical study reported by Kaul et al. (2021). In a second step, the parameter estimates from the population PK model were used in the BTK occupancy model to predict BTK occupancy in blood and spleen/tissues. Ultimately the BTK occupancy model was used to predict the BTK occupancy in spleen/tissues for different dosing regimens (QD, B.I.D) at different doses.

For a further data set, the system named is patients with CSU. Nature of the data set: Phase 2b core study in CSU: safety. In kind it is in vivo, human.
In another data set the test system is healthy atopic subjects. To be noted: doses of greater than or equal to 100 mg qd, MAD, across all tests; cited from earlier work.
[4] abbreviates: Core study, Any dose, N = 267, listed as remibrutinib.

For `C=CC(=O)N(C)CCOc1c(N)ncnc1-c1cc(F)cc(NC(=O)c2ccc(C3CC3)cc2F)c1C` [LOU064, N-(3-(6-amino-5-(2-(N-methylacrylamido)ethoxy)pyrimidin-4-yl)-5-fluoro-2-methylphenyl)-4-cyclopropyl-2-fluorobenzamide], the concentration at 2.5 h stood at 7 ± 2 nM in data set [1] (3 mg/Kg p.o.), 35 ± 14 nM in data set [1] (10 mg/Kg p.o.), 111 ± 56 nM in data set [1] (30 mg/Kg p.o.) and 488 ± 371 nM in data set [1] (100 mg/Kg p.o.). The receptor occupancy at 3 mg/kg on BTK [2] was determined as 89.1%. Moreover, the “Minimal human effective dose” value at BTK [3] is 25 mg b.i.d. The “Patients with newly occurring ALT>5xULN” value in the data set on patients with CSU (CS, normalised on treatment) turned out to be 1 patient. Also, the “Patients with ≥1 AE” value with patients with CSU (Core study, 10 mg b.i.d., N = 44) is given as 21 n; in the data set with patients with CSU (Core study, 10 mg q.d., N = 44), 29 n; in the data set on patients with CSU (Core study, 25 mg b.i.d., N = 43) it was 26 n; in the data set with patients with CSU (Core study, 35 mg q.d., N = 44), 23 n; with patients with CSU (Core study, 100 mg b.i.d., N = 45) it was 29 n; in the data set with patients with CSU (Core study, 100 mg q.d., N = 47), 27 n. Also, the “Headache (AEs by PT)” value in the data set on patients with CSU (setting [4]) is listed as 9.7%. Also, the “Infections and infestations (AEs by primary system organ class)” value in the data set with patients with CSU (setting [4]) is listed as 24.0%. Also, in the data set on patients with CSU (setting [4]), the “Skin and subcutaneous tissue disorders (AEs by primary system organ class)” value is listed as 16.9%. Further, in the data set on healthy atopic subjects, the “Average decrease in wheal size (SPT)” value is recorded as 3 mm.
